Square brackets hold non-standard residues; d marks the D form. Peptide text beside a SMILES is read from it. * marks the point of attachment. Acetyl(thymin-1-yl) = Cc1cn(CC(=O)*)c(=O)[nH]c1=O; Cha = N[C@@H](CC1CCCCC1)C(=O)O

For one data set, the system named is IMR90 cells. It is filed as cell-based. The procedure:
page 16: S7. Cell culture and MTT assay Cell culture: HeLa and IMR90 cells were purchased from American-type Culture Collection (ATCC, USA). Hela and IMR90 were cultured in Dulbecco’s Modified Eagle’s medium (DMEM) supplemented with 10% v fetal bovine serum (FBS), 100 U/mL penicillin and 100 μg/mL streptomycin. All cells were cultured at 37 °C in a […] For MTT assay, cells were seeded in a 96-well plate with the density of 5*103 cells per-well. After 24 hours seeding, the solutions of samples with a serial of concentr ations (5 concentrations and control) were added to each well. 10 μL MTT solution (5 mg/mL) was added to each well and incubated at 37°C for 2 days incubation and incubated for another 4 h, and then 100 μL of SDS-HCl solution was added to stop the reductio n reaction and dissolve the purple formazan. The absorbance of each well at 595 nm was measured by a multimode microplate reader. The cytotoxicity assay was performed three times and the average value of the three measurements was taken. ATP depletion method: Cells were pre -incubated with 10 mM sodium azide ( NaN3), 6 mM 2DG(2-deoxy-glucose) […] After 40 minutes, cells were washed with PBS and free medium. MNP/ADP complex was treated to ATP depleted HeLa cells for 48 hours to assess cytotoxicity.

Data set [1] is described as follows: Turbidity / appearance of aqueous solution (photograph, transmittance at 280 nm). In kind it is physicochemical. Conditions: 200 μM in aqueous solution, ATP added. The procedure: First, we investigated the self-assembly ability and interaction between MNP and ADP or ATP. […] As can be evinced from Fig. 1b and c, the formed nanostructure consisted of approximately 500 nm-sized micellar structures according to transmission electron microscopy (TEM) and scanning electron microscopy (SEM). This is further confirmed by the turbidity of the solution which was determined by transmittance using UV-Vis spectroscopy. […] Transmission electron (TEM) microscopy images of (a) MNP/ADP complex (scale bar: 100 nm) and (b) MNP/ATP complex at 200 μM concentration in aqueous solution (scale bar: 500 nm); (c) scanning electron microscopy image of the MNP/ATP complex at 200 μM concentration in aqueous solution (scale bar: 500 nm); (d) sample turbidity measured by transmittance at 280 nm (inset: photograph) of the MNP, MNP/ADP complex and MNP/ATP complex at 200 μM concentration in aqueous solution; (e) confocal images of the MNP-NBD/ATP complex (Scale bar: 1 μm); (f) photograph of the aqueous solutions of the control molecules (AcNP and MNP2) and MNP in a complex with ATP (concentration: 200 μM). […] S3. ^† Micellar structures characterized by green fluorescence (Fig. 1e) were observed by confocal laser scanning microscopy performed on the MNP-NBD/ATP complex at 200 μM concentration in aqueous solution. […]

With `CC(=O)N[C@H](CCCNC(=N)N)C(=O)N[C@H](CCCNC(=N)N)C(=O)N[C@@H](CC1CCCCC1)C(=O)N[C@H](CCCNC(=N)N)C(=O)N[C@@H](CC1CCCCC1)C(=O)N[C@H](CCCNC(=N)N)C(=O)N[C@@H](CC1CCCCC1)C(=O)N[C@@H](Cc1ccccc1)C(=O)N[C@@H](Cc1ccccc1)C(=O)O` [AcNP, Ac–rrFxrFxrFxFF] (Ac-[dR][dR][Cha][dR][Cha][dR][Cha]FF-OH), in the data set on IMR90 cells, the “toxicity toward IMR90 cells above 25 μM” value is “less toxicity” and the “toxicity toward IMR90 cells at 25 μM” value is reported as “almost no toxicity”.
On to `Cc1cn(CC(=O)N[C@H](CCCNC(=N)N)C(=O)N[C@H](CCCNC(=N)N)C(=O)N[C@@H](CC2CCCCC2)C(=O)N[C@H](CCCNC(=N)N)C(=O)N[C@@H](CC2CCCCC2)C(=O)N[C@H](CCCNC(=N)N)C(=O)N[C@@H](CC2CCCCC2)C(=O)O)c(=O)[nH]c1=O` [MNP2, Thy–rrFxrFxrFx] ({Acetyl(thymin-1-yl)}-[dR][dR][Cha][dR][Cha][dR][Cha]-OH), for which, in data set [1], the “appearance of solution in the presence of ATP” value is on record as “did not become cloudy”.

(Values after PMC9159100, “Intramitochondrial co-assembly between ATP and nucleopeptides induces cancer cell apoptosis” (Chemical Science, 2022).)
